In patent US20250136583A1, “NOVEL SALT FORMS OF ISOCHROMAN-IMIDAZOLE STRUCTURED ALPHA-2A ADRENOCEPTOR AGONIST” (ORION CORPORATION, priority 2022, published 2025):
Where a name gives a salt, the structure may show the parent alone.

Tests used:
[1] = biological target: T1, alpha2A receptor (Homo sapiens, UniProt P08913); details: background, WO 2013/150173; cited from earlier work
T1 sequence (P08913 1-465): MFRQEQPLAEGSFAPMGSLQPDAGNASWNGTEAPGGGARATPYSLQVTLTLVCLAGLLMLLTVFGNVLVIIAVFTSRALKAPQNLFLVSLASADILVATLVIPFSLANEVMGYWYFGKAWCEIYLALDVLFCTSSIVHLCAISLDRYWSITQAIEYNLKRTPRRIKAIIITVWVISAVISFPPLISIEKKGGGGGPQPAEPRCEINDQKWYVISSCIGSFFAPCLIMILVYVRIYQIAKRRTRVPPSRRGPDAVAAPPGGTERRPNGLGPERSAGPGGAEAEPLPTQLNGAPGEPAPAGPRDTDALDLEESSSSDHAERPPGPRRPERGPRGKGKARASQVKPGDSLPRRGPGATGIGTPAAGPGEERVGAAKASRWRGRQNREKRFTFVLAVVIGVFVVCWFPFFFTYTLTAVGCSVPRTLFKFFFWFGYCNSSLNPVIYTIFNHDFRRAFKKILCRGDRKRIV

[2] = Chemical stability of the salts (stress at 60° C. and 75% relative humidity, purity by UHPLC); assay type: physicochemical; details: for Purity (%) of 1 day stress samples / Difference between reference and 1 day stressed sample: 1 day at 60° C. and 75% relative humidity; for Purity (%) of 1 day stress samples / Purity (%) of 14 day stress samples / Purity (%) of reference: UHPLC; for Difference between reference and 1 day stressed sample / Difference between reference and 14 day stressed sample: purity difference, in %; for Purity (%) of 14 day stress samples / Difference between reference and 14 day stressed sample: 14 days at 60° C. and 75% relative humidity; for Purity (%) of reference: unstressed sample; for Chemical stability (in words): summary statement
Description: The purity analyses were performed using Agilent UHPLC equipment with PDA/DAD detector at 210 nm wavelength and reverse phase liquid chromatography column Acquity UPLC HSS T3, 100×3.0 mm, 1.8 μm (Waters). The chromatography was performed with gradient run using acetonitrile and phosphate buffer (pH 3.0) as eluents.
The chemical stability of various salts of compound (I) was determined by stressing the salts for 1 and 14 days at 60° C. and 75% relative humidity. The unstressed sample was used as an reference. The purity of the samples were analyzed using UHPLC, and the purity difference between the stressed and reference was calculated.

[3] = Physical stability of the salts (storage at elevated temperature and relative humidity, re-analysis by XRPD); assay type: physicochemical; details: solids exposed for 2 or 3 weeks at 40° C. and 70-80% relative humidity; for Form after stability: XRPD; for Physical stability: re-analyzed by XRPD
Description: XRPD measurements were performed with the X-ray powder diffractometer Bruker D8 Advance at room temperature, using a copper filled X-ray tube (40 kV×40 mA) as the X-ray source, CuKα (λ=1.5418 Å), a 0.6 mm divergence slit, 2.5° Soller slits on both the primary and secondary beams and the 1-dimensional LynxEye detector (with aperture angle of 2.91593°). Data collection was done in the range of 3.8-33° 2θ with 0.02° increments, at a scan speed of 0.3°/s.
A stability test was carried out for all crystalline salt forms resulted from the salt screen by exposing the solids for 2 or 3 weeks at 40° C. and 70-80% relative humidity. After exposure, the solids were re-analyzed by XRPD, followed by physical stability assessment.

[4] = listed as Napthalene-1,5-disulfonic acid salt

| Compound | Purity (%) of 1 day stress samples [2] [%] | Difference between reference and 1 day stressed sample [2] | Purity (%) of 14 day stress samples [2] [%] | Difference between reference and 14 day stressed sample [2] | Purity (%) of reference [2] [%] | Form after stability [3] | Physical stability [3] | Chemical stability (in words) [2] | also measured |
| --- | --- | --- | --- | --- | --- | --- | --- | --- | --- |
| COc1cccc2c1CCOC2C1=NCCN1 (centres unmarked) [Tasipimidine, 2-(5-methoxyisochroman-1-yl)-4,5-dihydro-1H-imidazole] | – | – | – | – | – | – | – | – | Activity on adrenergic alpha2 receptors, especially alpha2A receptor [1]: agonistic activities |
| COc1cccc2c1CCOC2C1=NCCN1 [L-tartaric acid salt Form 1, 2-(5-methoxyisochroman-1-yl)-4,5-dihydro-1H-imidazole] | 97.9 | 1.0 | 90.3 | 8.7 | 99.0 | Form 1 | Stable | – | Physical stability ([3]; listed as L-tartaric acid (form 1)): remained stable |
| COc1cccc2c1CCOC2C1=NCCN1 (centres unmarked) [Hydrobromic acid salt Form 1, 2-(5-methoxyisochroman-1-yl)-4,5-dihydro-1H-imidazole] | 98.1 | 0.2 | 98.2 | 0.1 | 98.3 | Form 1 | Stable | good chemical stability | Physical stability ([3]; listed as hydrobromic acid): remained stable |
| COc1cccc2c1CCOC2C1=NCCN1 (centres unmarked) [Oxalic acid salt Form 1, 2-(5-methoxyisochroman-1-yl)-4,5-dihydro-1H-imidazole] | 97.9 | −0.2 | 97.9 | −0.2 | 97.7 | Form 1 | Stable | good chemical stability | Physical stability ([3]; listed as oxalic acid): remained stable |
| COc1cccc2c1CCOC2C1=NCCN1 (centres unmarked) [Hydrochloric acid salt Form 1, 2-(5-methoxyisochroman-1-yl)-4,5-dihydro-1H-imidazole] | 89.8 | 8.7 | 69.0 | 29.5 | 98.6 | Form 1 | Stable | – | Physical stability ([3]; listed as hydrochloric acid): remained stable |
| COc1cccc2c1CCOC2C1=NCCN1 (centres unmarked) [Naphthalene-1,5-disulfonic acid salt Form 1] [2-(5-methoxyisochroman-1-yl)-4,5-dihydro-1H-imidazole] | – | – | – | – | – | Form 1 | Stable | good chemical stability | Purity (%) of 1 day stress samples [2, 4]: 96.1%; Difference between reference and 1 day stressed sample [2, 4]: 0.2; Purity (%) of 14 day stress samples [2, 4]: 95.7%; Difference between reference and 14 day stressed sample [2, 4]: 0.6; Purity (%) of reference [2, 4]: 96.3%; Physical stability ([3]; listed as naphthalene-1,5-disulfonic acid): remained stable |

Further lines, with some results ahead:

| Purity (%) of 1 day stress samples [2] [%] | Difference between reference and 1 day stressed sample [2] | Purity (%) of 14 day stress samples [2] [%] | Difference between reference and 14 day stressed sample [2] | Purity (%) of reference [2] [%] | Form after stability [3] | Physical stability [3] | Chemical stability (in words) [2] | Compound | also measured |
| --- | --- | --- | --- | --- | --- | --- | --- | --- | --- |
| 97.7 | 1.6 | 35.6 | 63.6 | 99.2 | Form 1 | Stable | – | COc1cccc2c1CCOC2C1=NCCN1 (centres unmarked) [Mucic acid salt Form 1, 2-(5-methoxyisochroman-1-yl)-4,5-dihydro-1H-imidazole] | Physical stability ([3]; listed as mucic acid): remained stable |
| 94.7 | 4.4 | 2.7 | 96.5 | 99.1 | Form 1 | Stable | – | COc1cccc2c1CCOC2C1=NCCN1 (centres unmarked) [Adipic acid salt Form 1, 2-(5-methoxyisochroman-1-yl)-4,5-dihydro-1H-imidazole] | Physical stability ([3]; listed as adipic acid): remained stable |
| 99.3 | 0.5 | 17.6 | 82.2 | 99.8 | Form 1 | Stable | – | COc1cccc2c1CCOC2C1=NCCN1 (centres unmarked) [Glycolic acid salt Form 1, 2-(5-methoxyisochroman-1-yl)-4,5-dihydro-1H-imidazole] | Physical stability ([3]; listed as glycolic acid): remained stable |
